# Laboratory results as given in patent publication US8394971B2, “Indole derivatives as selective androgen receptor modulators (SARMS)” (Janssen Pharmaceutica N.V., priority 2004, dated 2013).
# Where two headings read alike, the source gives them in different places.
# What was measured:
# [1] = target: T1, androgen receptor LBD (Panvera) (Rattus norvegicus, UniProt P15207); test: Androgen Receptor Filtration Binding Assay (PANVERA)
# T1 construct: 5 pmol androgen receptor LBD (Panvera); purchased Panvera
# T1 sequence (P15207 651-882 limits assumed): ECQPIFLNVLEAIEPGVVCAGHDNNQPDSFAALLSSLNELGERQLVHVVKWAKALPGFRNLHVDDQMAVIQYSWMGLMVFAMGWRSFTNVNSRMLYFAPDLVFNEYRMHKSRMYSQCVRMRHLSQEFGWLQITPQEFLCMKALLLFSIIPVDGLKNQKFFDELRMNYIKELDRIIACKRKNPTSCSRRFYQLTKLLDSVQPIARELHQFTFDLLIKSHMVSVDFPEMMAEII
# Method: (§1) The assay was run on a 96 well plate with each well filled with a total reaction volume 150 μL, of a solution containing 5 pmol androgen receptor LBD (Panvera) or 30 μL of freshly prepared rat cytosol, 0.5 nM [^3H] […] (TED buffer contains 10 mM Tris.HCl pH 7.4, 1 mM sodium molybdate, 1.5 mM EDTA, 1 mM DTT and 10% (v/v) glycerol.)
# (§2) On day one, the solution containing receptor, tracer and TED buffer was distributed into a 96 well plate. Diluted test compound or control vehicle was then added to individual wells and the plate incubated at 4° C. overnight.
# (§3) On day two, to each well was then added 20 μL human γ-globulin (ICN 823102), prepared at 25 mg/ml in TE pH 8.0, and 55 μL 40% polyethylene glycol 8000 (JT Baker U222-08), prepared in TE pH 8.0. The plate was incubated at 4° C. for 60 minutes. During incubation, the harvester was rinsed with 10% PEG 8000, prepared in TE pH 8.0, and a GF/C Unifilter-96 was pre-wet with 10% PEG. The binding reaction was filtered, the retentate was washed three times with 10% PEG and dried under vacuum for a couple of minutes, then dried at 50° C. for 5 min and the plate was bottom sealed. Next, 25 μL of Microscint-20 (Packard) was added to the filter wells and the plate was top sealed. The plate wells were then counted on a TopCount (Packard).
# Counts per well were measured and IC50s determined by linear regression.
# [2] = target: T2, androgen receptor (rat ventral prostate cytosol) (Rattus norvegicus, UniProt P15207); test: Androgen Receptor Binding Using Rat Ventral Prostate Cytosol
# T2 construct: from tissue; host or cells: ventral prostate of castrated male Sprague Dawley or Wistar rats, cytosol
# T2 sequence (P15207 1-902): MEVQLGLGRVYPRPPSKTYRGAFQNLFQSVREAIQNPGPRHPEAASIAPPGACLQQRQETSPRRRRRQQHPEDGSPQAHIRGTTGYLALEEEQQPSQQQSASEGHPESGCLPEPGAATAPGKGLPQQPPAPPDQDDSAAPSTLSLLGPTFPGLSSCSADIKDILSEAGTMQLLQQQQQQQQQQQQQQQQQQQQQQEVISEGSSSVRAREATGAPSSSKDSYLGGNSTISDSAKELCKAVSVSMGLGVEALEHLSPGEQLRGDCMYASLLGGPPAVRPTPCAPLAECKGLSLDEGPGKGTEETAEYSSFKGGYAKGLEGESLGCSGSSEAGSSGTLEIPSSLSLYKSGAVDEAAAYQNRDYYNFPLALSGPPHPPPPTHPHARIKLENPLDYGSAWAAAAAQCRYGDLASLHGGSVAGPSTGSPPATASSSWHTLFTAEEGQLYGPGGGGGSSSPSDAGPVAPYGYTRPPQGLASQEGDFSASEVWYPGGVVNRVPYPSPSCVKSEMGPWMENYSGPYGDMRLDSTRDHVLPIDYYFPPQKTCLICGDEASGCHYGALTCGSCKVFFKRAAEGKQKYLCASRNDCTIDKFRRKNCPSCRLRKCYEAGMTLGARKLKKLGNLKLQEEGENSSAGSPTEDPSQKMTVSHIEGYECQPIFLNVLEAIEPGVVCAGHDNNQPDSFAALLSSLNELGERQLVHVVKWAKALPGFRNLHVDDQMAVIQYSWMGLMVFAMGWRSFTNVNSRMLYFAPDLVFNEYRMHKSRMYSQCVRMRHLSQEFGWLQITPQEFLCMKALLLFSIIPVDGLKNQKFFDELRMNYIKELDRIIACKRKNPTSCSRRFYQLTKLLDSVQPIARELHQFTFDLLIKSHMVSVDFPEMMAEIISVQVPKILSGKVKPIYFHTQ
# Method: as §1, §2, §3
# Rat Prostate Cytosol Preparation:
# Male Sprague Dawley or Wistar rats (Charles River, 200-300 g) were used for each preparation. The day before preparing the cytosol, the rats were castrated using standard surgical procedures.
# The rats were euthanized by carbon dioxide asphyxiation. The rat prostates were quickly removed and placed on ice in pre-chilled, pre-weighed 50 mL plastic tubes. No more than five prostates were placed into one tube. The tubes were then weighed and the prostate tissue wet weights calculated.
# To the chilled prostate tissue was then added […] of chilled homogenization buffer. The homogenization buffer was freshly prepared by mixing 10 mM Tris.HCl, pH 7.4, 1 mM sodium molybdate, 1.5 mM EDTA, 1 mM dithiothreitol, 10% (v/v) glycerol and 1% protease inhibitor cocktail (Sigma P 8340).
# The prostate tissue was homogenized in a cold room using a pre-chilled Polytron PT3000 homogenizer (Brinkmann). Homogenization was performed at a speed setting of 20, three times for 10 sec bursts. The tubes containing the prostate tissue was kept on ice while homogenizing. The homogenate was allowed to rest on ice for 20 sec between bursts.
# The homogenate was then placed into pre-chilled 3 mL polycarbonate ultracentrifuge tubes and centrifuged in the TLA-100 rotor of a TL-100 ultracentrifuge for 12 min at 100,000 rpm at 4° C. The resulting supernatant was stored in 1 mL aliquots at −80° C. until needed.
# Binding to the androgen receptor was determined according to the protocol described in Example 86 using the above prepared rat cytosol.
# % Inhibition was determined by testing dilutions of the test compound (usually duplicates of 10 μM) in the binding assay. Counts per well were measured and percents of inhibition determined. […] Counts per well were measured and IC50s determined by linear regression.
# [3] = target: T3, androgen receptor (adenovirus AdEasy+rAR in L929 cells) (Rattus norvegicus, UniProt P15207); test: L929 Androgen Receptor Functional Assay, Adenovirus Transduction; format: cell-based; conditions: L929 agonist testing; 3000 nM
# T3 construct: expressed in transfected cells
# T3 sequence (P15207 1-902): T2 sequence (P15207 1-902)
# Procedure, shortened: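 L929 cells in phenol red-free, charcoal-stripped serum medium transduced with AdEasy+rAR (moi 1:500) and exposed 48 h at 37 °C to compound alone (agonist mode) or with R1881 (antagonist mode; 2.5 nM as the 2.5× dilution).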
# [4] = tested on: testosterone-enhanced ventral prostate and seminal vesicle weights in castrated male Sprague Dawley rats; test: Ventral Prostate and Seminal Vesicle Weight In Vivo Assay; design: species or system rat; conditions: immature castrated rats; once daily for five days, usually orally at 40 mg/kg, with testosterone propionate 2 mg/kg s.c.
# Procedure, shortened: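 Immature (~50 g) castrated Sprague Dawley rats dosed once daily for five days with compound (usually oral, 40 mg/kg, cyclodextrin or methylcellulose vehicle) plus testosterone propionate 2 mg/kg s.c. Wet ventral prostate and seminal vesicle weights taken on day six; activity judged by prostate weight or body-weight-adjusted % inhibition.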
# [5] = Androgen Receptor Binding (Panvera), 0.5 nM [3H] R1881 tracer
# [6] = rat cytosol, concentration 1000 nM
# [7] = rat cytosol, concentration 3000 nM
# [8] = rat cytosol, concentration 1000 nM, 1 µM
compound,measurement,setting,value
CC(O)(COC(=O)c1ccccc1Cl)c1cc2cc([N+](=O)[O-])c(C(F)(F)F)cc2[nH]1 (stereo not shown) [compound 54],IC50,[1],0.465 µM
CC(O)(c1cc2cc(C#N)c(C(F)(F)F)cc2[nH]1)S(=O)(=O)c1ccc(Cl)cc1 (racemic) [compound 262],IC50,[1]; [5],> 10 µM
same,% Inhibition,[2]; [6],−8.4%
CC(O)(Sc1ccc(Cl)cc1)c1cc2cc([N+](=O)[O-])c(C(F)(F)F)cc2[nH]1 (racemic) [compound 259],IC50,[1]; [5],0.915 µM
CC(C)SC(C)(CO)c1cc2cc([N+](=O)[O-])c(C(F)(F)F)cc2[nH]1 (racemic) [compound 268],% Activity,[3],9%
same,active / inactive (inhibition of testosterone-enhanced prostate weight),[4],inactive
same,% Inhibition,[2]; [7],−3.3%
CC(O)(CSc1ccc(F)cc1)c1cc2cc(Cl)c(C(F)(F)F)cc2[nH]1 (stereo not shown) [compound 83],IC50,[1]; [5],0.16 µM
CC(O)(CSC1CCCCC1)c1cc2nc(C(F)(F)F)ccc2[nH]1 (racemic) [Compound #1],IC50,[1]; [5],14 µM
same,% Inhibition,[2]; 1 µM,22%
COc1ccc(CN2CCC(O)(c3cc4cc(Cl)c(C(F)(F)F)cc4[nH]3)CC2)cc1 [compound 35],inhibition at 1 µM,[2]; [6],-19%
same,IC50,"[2]; rat cytosol, read-out: IC50",4200 nM
CC(O)(Sc1ccc(N)cc1)c1cc2cc([N+](=O)[O-])c(C(F)(F)F)cc2[nH]1 (racemic) [compound 266],% Activity,[3],−4%
same,active / inactive (inhibition of testosterone-enhanced prostate weight),[4],inactive
same,% Inhibition,[2]; [7],12.4%
CS(=O)(=O)n1c(C2(O)CCN(C(=O)c3ccc(Cl)cc3)CC2)cc2cc(Cl)c(C(F)(F)F)cc21 [compound 24],% Inhibition,[2]; [6],2%
CN(C)c1ccc(S(=O)(=O)CC(C)(O)c2cc3cc(Cl)c(C(F)(F)F)cc3[nH]2)cc1 (racemic) [compound 126],% Activity,[3],−5%
same,active / inactive (inhibition of testosterone-enhanced prostate weight),[4],inactive
same,% Inhibition,[2]; [7],−30%
CC(O)(CS(=O)(=O)Cc1ccccc1)c1cc2cc([N+](=O)[O-])c(C(F)(F)F)cc2[nH]1 (racemic) [compound 162],% Activity,[3],2%
same,active / inactive (inhibition of testosterone-enhanced prostate weight),[4],inactive
same,% Inhibition,[2]; [7],0.69%
O=C(c1ccc(Cl)cc1)N1CCC(O)(c2cc3cc(Cl)c(C(F)(F)F)cc3[nH]2)CC1 [Compound #25],IC50,[1]; [5],8.8 µM
same,inhibition at 1 µM,[2]; [6],-83.5%
OC1(c2cc3cc(Cl)c(C(F)(F)F)cc3[nH]2)CCN(Cc2ccc(Cl)c(Cl)c2)CC1 [compound 36],IC50,[2]; IC50 (nM),> 100000 nM
same,inhibition at 1 µM,[2]; [6],-34%
Cc1ccc(CN2CCC(O)(c3cc4cc(Cl)c(C(F)(F)F)cc4[nH]3)CC2)cc1 [compound 30],inhibition at 1 µM,[2]; [6],-7.7%
same,IC50,"[2]; rat cytosol, read-out: IC50",4100 nM
CC(O)(Sc1ccc(Cl)cc1)c1cc2cc(C#N)c(C(F)(F)F)cc2[nH]1 (racemic) [compound 261],IC50,[1]; [5],1.46 µM
same,% Inhibition,[2]; [6],14.05%
CC(O)(CSc1ccc(Cl)cc1)c1cc2cc(C#N)c(C(F)(F)F)cc2[nH]1 (stereo not shown) [compound 96],IC50,[1],1.71 µM
CC(O)(SC1CCCCC1)c1cc2cc([N+](=O)[O-])c(C(F)(F)F)cc2[nH]1 (racemic) [compound 256],IC50,[1]; [5],2.65 µM
O=[N+]([O-])c1cc2cc(C3(O)CCN(Cc4ccc(Cl)cc4)CC3)[nH]c2cc1C(F)(F)F [compound 41],% Inhibition,[2]; [8],20%
same,IC50,"[2]; rat cytosol, read-out: IC50",2300 nM
COc1cccc(CN2CCC(O)(c3cc4cc(Cl)c(C(F)(F)F)cc4[nH]3)CC2)c1 [compound 29],inhibition at 1 µM,[2]; [6],-1.8%
same,IC50,"[2]; rat cytosol, read-out: IC50",4700 nM
CS(=O)(=O)c1ccc(CN2CCC(O)(c3cc4cc(Cl)c(C(F)(F)F)cc4[nH]3)CC2)cc1 [compound 34],inhibition at 1 µM,[2]; [6],18%
same,IC50,"[2]; rat cytosol, read-out: IC50",5700 nM
Cc1ccc(CN2CCC(O)(c3cc4cc([N+](=O)[O-])c(C(F)(F)F)cc4[nH]3)CC2)cc1 [Compound #42],% Inhibition,[2]; 1 µM,23%
same,IC50,"[2]; rat cytosol, read-out: IC50",7100 nM
COc1cccc(CN2CCC(O)(c3cc4cc([N+](=O)[O-])c(C(F)(F)F)cc4[nH]3)CC2)c1 [compound 39],% Inhibition,[2]; [8],6%
same,IC50,"[2]; rat cytosol, read-out: IC50",> 6100 nM
O=[N+]([O-])c1cc2cc(C3(O)CCN(Cc4ccc(Cl)cc4)CC3)[nH]c2cc1C(F)(F)F [compound 40],% Inhibition,[2]; [8],−2.5%
same,IC50,"[2]; rat cytosol, read-out: IC50",3800 nM
Cc1ccc(CN2CCC(O)(c3cc4cc([N+](=O)[O-])c(C(F)(F)F)cc4[nH]3)CC2)cc1 [compound 27],IC50,"[2]; rat cytosol, read-out: IC50",3100 nM
CC(C)(C)c1ccc(CN2CCC(O)(c3cc4cc(Cl)c(C(F)(F)F)cc4[nH]3)CC2)cc1 [Compound #32],inhibition at 1 µM,[2]; [6],34%
same,IC50,"[2]; rat cytosol, read-out: IC50",43000 nM
OC1(c2cc3cc(Cl)c(C(F)(F)F)cc3[nH]2)CCN(Cc2ccccc2)CC1 [Compound #22],IC50,[1]; [5],> 9.6 µM
OC1(c2cc3cc(Cl)c(C(F)(F)F)cc3[nH]2)CCN(Cc2ccc(C(F)(F)F)cc2)CC1 [Compound #33],inhibition at 1 µM,[2]; [6],11%
same,IC50,"[2]; rat cytosol, read-out: IC50",29000 nM
CC(O)(c1cc2cc([N+](=O)[O-])c(C(F)(F)F)cc2[nH]1)S(=O)(=O)c1ccc(Cl)c(Cl)c1 (racemic) [compound 255],% Inhibition,[2]; [6],26%
COc1cccc(CN2CCC(O)(c3cc4cc([N+](=O)[O-])c(C(F)(F)F)cc4[nH]3)CC2)c1 [compound 38],% Inhibition,[2]; [8],16%
same,IC50,"[2]; rat cytosol, read-out: IC50",8800 nM
OC1(c2cc3cc(Cl)c(C(F)(F)F)cc3[nH]2)CCN(Cc2ccc(Cl)cc2)CC1 [compound 31],inhibition at 1 µM,[2]; [6],20%
same,IC50,"[2]; rat cytosol, read-out: IC50",4050 nM
OC1(c2cc3cc(Cl)c(C(F)(F)F)cc3[nH]2)CCN(Cc2ccc(F)cc2)CC1 [compound 28],inhibition at 1 µM,[2]; [6],-3.4%
same,IC50,"[2]; rat cytosol, read-out: IC50",7000 nM
CC(O)(SC1CCCCC1)c1cc2cc(C#N)c(C(F)(F)F)cc2[nH]1 (racemic) [compound 257],IC50,[1]; [5],5.15 µM
